Experimental data: article PMC5515887, “Ruthenium-conjugated chrysin analogues modulate platelet activity, thrombus formation and haemostasis with enhanced efficacy” (Scientific Reports, 2017)
Like-named read-outs stand apart in the source and are kept apart here.

Tests used:
[1] = system: human platelet-rich plasma (PRP); assay: CRP-XL-induced platelet aggregation in human platelet-rich plasma (optical aggregometry); assay type: cell-based
Method: Therefore, to determine the effects of various concentrations of chrysin and its derivatives in the presence of plasma proteins, aggregation assays were performed using human platelet-rich plasma (PRP) and 0.5 μg/mL CRP-XL.
Figure 3 Impact of chrysin and its derivatives on platelet activation in platelet-rich plasma. […] The platelet aggregation was monitored for 5 minutes. The traces shown are representative of three separate experiments.
The preparation of human platelets and aggregation assays were performed using standard protocols as described by us previously, [16]. Briefly, human blood was collected in 3.2% citrate containing vacutainers via venepuncture from healthy, aspirin-free individuals with informed consent in accordance with the methods approved by the University of Reading Research Ethics Committee. All methods were performed in accordance with the relevant institutional and national guidelines and regulations. Blood samples were centrifuged at 102 g for 20 minutes at room temperature to separate the PRP, which was used in aggregation, flow cytometry, static platelet adhesion, calcium mobilisation and clot retraction assays. For the preparation of washed platelets, 50 mL of blood samples were mixed with 7.5 mL of ACD (acid citrate dextrose) (20 g/L glucose, 25 g/L sodium citrate and 15 g/L citric acid) and centrifuged at 102 g for 20 minutes at room temperature. The PRP was carefully aspirated from the other blood cells prior to mixing with 3 mL of ACD and centrifuging at 1413 g for 10 minutes at room temperature. The resulting platelet pellet was re-suspended in modified Tyrodes-HEPES buffer (2.9 mM KCl, 134 mM NaCl, 0.34 mM Na2HPO4.12H20, 1 mM MgCl2, 12 mM NaHCO3, 20 mM HEPES, pH 7.3) and washed by centrifuging again at 1413 g for 10 minutes. The resulting platelet pellet was suspended in modified Tyrodes-HEPES buffer at a density of 4 × 10^8 cells/mL for aggregation, dense granule secretion, cellular uptake studies and calcium mobilisation assays. Human platelet aggregation was performed using CRP-XL as an agonist in the presence and absence of various concentrations of chrysin and its synthetic derivatives by optical aggregometry. A vehicle control [DMSO at a concentration of less than 0.1% (v/v)] was included in all the experiments. Dense granule secretion in platelets was determined by measuring the ATP release using the luciferin-luciferase reagent by lumi-aggregometry (Chrono-Log, USA). SDS-PAGE and immunoblotting analysis were performed using standard protocols. The rabbit anti-phospho-specific antibodies for human AKT pS473, FAK pY397 and Src pY527 were obtained from Abcam, UK and rabbit anti-human 14-3-3ζ (Santa Cruz Biotechnology, USA) was used to detect protein 14-3-3ζ as a loading control in immunoblot assays. The Cy5-conjugated goat anti-rabbit IgG (Life technologies, UK) was used as the secondary antibody.

AKT = assay: Immunoblot of AKT phosphorylation at S473 in CRP-XL activated platelets; assay type: cell-based, human; details: washed platelets, CRP-XL 0.5 μg/mL
Text: (§1) The calcium traces (Ai and Bi) shown are representative of three separate experiments. […] The platelets were lysed and used for immunoblot analysis to detect the level of AKT phosphorylation at residue S473, FAK phosphorylation at Y397 and phosphorylation of Src at Y527. The level of 14-3-3ζ protein was detected as a loading control. The cropped images of the blots shown here are representative of three separate experiments. The uncropped full length blots are presented in Supplementary Information (Figure S8).
(§2) Calcium mobilisation is associated with phosphoinositide 3-kinase (PI3K) signalling in platelets. Protein kinase B (AKT) is a downstream effector of PI3K and a key marker for the PI3K/AKT signalling pathway. […]
(§3) The preparation of human platelets and aggregation assays were performed using standard protocols as described by us previously, [16]. Briefly, human blood was collected in 3.2% citrate containing vacutainers via venepuncture from healthy, aspirin-free individuals with informed consent in accordance with the methods approved by the University of Reading Research Ethics Committee. […] Dense granule secretion in platelets was determined by measuring the ATP release using the luciferin-luciferase reagent by lumi-aggregometry (Chrono-Log, USA). […]

FAK = assay: Immunoblot of FAK phosphorylation at Y397 in CRP-XL activated platelets; assay type: cell-based, human; details: washed platelets, CRP-XL 0.5 μg/mL
Text: as §1, §2, §3

human whole blood = assay: In vitro thrombus formation under arterial flow conditions on collagen-coated Vena8 biochips; assay type: cell-based; details: 100 μM compound
Method: Platelet activation under arterial flow conditions culminates in the formation of thrombus at the damaged blood vessels and thereby reducing the blood supply to target tissues.
(§4) Thrombus formation was monitored by capturing Z-stack fluorescent images at every 30 seconds over 10 minutes by fluorescence microscopy. The images shown (A) at different time points and traces (B) are representative of three separate experiments. […] Data represent ± S.D. (n = 8 mice in each group).
Z-stack images of thrombi were obtained every 30 seconds for up to 10 minutes using a Nikon eclipse (TE2000-U) microscope (Nikon Instruments, UK). The median fluorescence intensity and thrombus volume were calculated by analysing the images using ImageJ.

haemostasis in mice = assay: Tail bleeding assay; assay type: in vivo, C57BL/6 mice; details: final concentration 25 μM via femoral artery, 5 minutes before tail tip dissection, control 445 seconds
Method: as §4, with “group). The p values shown (*p < 0.05 and ***p < 0.001) are as calculated by non-parametric Mann-Whitney test using Graphpad Prism.” for “group).”
Following five minutes incubation, 1 mm of tail tip was dissected and the bleeding time was monitored.
The University of Reading Local Ethical Review Panel and the British Home Office approved the tail-bleeding assay performed in this study. All methods were performed in accordance with the relevant guidelines and regulations. In brief, C57BL/6 mice (9 weeks old; Envigo, UK) were anaesthetized using ketamine (80 mg kg^−1) and xylazine (5 mg kg^−1) administered via intraperitoneal route 20 minutes prior to the experiment and placed on a heated pad (37 °C). […] The tail tip was placed in sterile saline at 37 °C and the time to cessation of bleeding was measured up to 20 minutes.

[2] = biological target: T1, human serum albumin (HSA) (Homo sapiens, UniProt P02768); assay: HSA binding assay (TRANSIL XL HSA binding kit)
T1 construct: purchased Sovicell, Germany
Method: HSA binding assay was performed using TRANSIL^XL binding kit (Sovicell, Germany) according to the manufacturer’s protocol. […] The plate was then incubated on a plate shaker at 100 g for 12 minutes followed by centrifugation for 10 minutes at 750 g.

T1 sequence (P02768 25-609): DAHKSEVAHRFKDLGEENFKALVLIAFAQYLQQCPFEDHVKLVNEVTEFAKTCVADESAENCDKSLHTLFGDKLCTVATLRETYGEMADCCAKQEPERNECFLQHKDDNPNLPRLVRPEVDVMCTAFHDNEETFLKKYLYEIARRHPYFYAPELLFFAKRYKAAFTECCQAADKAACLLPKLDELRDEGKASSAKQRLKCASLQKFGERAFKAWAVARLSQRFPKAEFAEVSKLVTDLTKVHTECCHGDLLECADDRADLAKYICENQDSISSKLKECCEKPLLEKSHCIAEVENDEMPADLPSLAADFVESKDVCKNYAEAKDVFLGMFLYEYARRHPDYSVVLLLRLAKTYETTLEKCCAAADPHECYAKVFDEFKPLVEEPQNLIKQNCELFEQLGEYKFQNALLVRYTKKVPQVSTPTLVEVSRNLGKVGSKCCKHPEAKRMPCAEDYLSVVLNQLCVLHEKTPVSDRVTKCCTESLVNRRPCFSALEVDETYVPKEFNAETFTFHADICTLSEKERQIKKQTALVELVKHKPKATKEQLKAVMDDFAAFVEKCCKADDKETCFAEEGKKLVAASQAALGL

O=c1cc(-c2ccccc2)oc2cc(O)cc(O)c12 [chrysin]
effect on platelet aggregation at lower concentrations ([1]; PRP, 6.25 μM and 12.5 μM compound, CRP-XL 0.5 μg/mL): did not exhibit significant effects
reduction in platelet aggregation ([1]; PRP, 100 μM compound, CRP-XL 0.5 μg/mL): around 40%
effect on AKT phosphorylation at S473 (AKT): inhibited their phosphorylation in a concentration-dependent manner
effect on FAK phosphorylation at Y397 (FAK): inhibited their phosphorylation in a concentration-dependent manner
inhibition at 100 µM (human whole blood; 10 min, 20 dynes/cm^2, read-out: inhibition of thrombus growth and volume): ~50%
bleeding time (average) (haemostasis in mice): 901 s
Kd [2]: 1.93 µM
fraction unbound at 12 min, 50 µM ([2]; human, plasma): 0.003

chlorido [(5-oxo-κO)-7-hydroxy-(2-phenyl)-4H-chromen-4-thionato-κS] (η6-p-cymene)ruthenium(II) [Ru-thio-chrysin]
effect on platelet aggregation in PRP ([1]; PRP, CRP-XL 0.5 μg/mL): significant effect at lower concentrations including 6.25 μM
greater inhibition of platelet function and thrombus formation in vitro than chrysin ([1]; physiologically relevant conditions such as platelet-rich plasma and whole blood): 4 fold
effect on AKT phosphorylation at S473 (AKT): inhibited their phosphorylation in a concentration-dependent manner
effect on FAK phosphorylation at Y397 (FAK): inhibited their phosphorylation in a concentration-dependent manner
inhibition of thrombus growth and volume (human whole blood; 20 dynes/cm^2, 10 minutes): approximately 75%
bleeding time (average) (haemostasis in mice): 1096 s
fraction bound to plasma (fb) ([2]; TRANSIL XL HSA binding kit): < 29.6%
Kd ([2]; TRANSIL XL HSA binding kit, 50 µM compound, read-out: binding affinity (Kd) to HSA): 1400 µM
